# Data: ChEMBL document CHEMBL4665861, “Chemical constituents from Macleaya cordata (Willd) R. Br. and their phenotypic functions against a Parkinson's disease patient-derived cell line” (Bioorg Med Chem, 2020)
# Active and inactive are the calls of the source. The calls are words filed in the database; no cut-off is given here.
# Assays:
# [1] = (§1) Induction of cytological phenotypic changes in cellular organelles in Parkinson's disease patient human ONS derived C1200080013 cells assessed as perturbation of mitochondria marker intensity in inner region of cytoplasm by measuring log2ratio at 30 uM incubated for 24 hrs by MitoTrackerOrange CMTMRos/DAPI staining based fluorescence microscopic analysis; assay type: functional
# [2] = as §1, with “EEA1” for “mitochondria”, “in” for “in inner region of”, “LysoTrackerRed DND-99/anti-EEA1” for “MitoTrackerOrange CMTMRos/DAPI”; assay type: tissue-based; details: c1200080013, 24 h
# C1200080013 = assay: as §1, with “perturbation” for “perturbation of mitochondria marker intensity”, “mitochondrial features” for “inner region of cytoplasm”, “punctuate and fragmented mitochondrial morphology” for “log2ratio”; assay type: functional, cell-based
# [3] = Induction of cytological phenotypic changes in cellular organelles in Parkinson's disease patient human ONS derived C1200080013 cells assessed as changes in features associated with early endosome antigen1 by measuring alteration in EEA1 staining intensity at 10 uM incubated for 24 hrs by LysoTrackerRed DND-99/anti-EEA1 staining based fluorescence microscopic analysis; details: c1200080013, 24 h
# [4] = Induction of cytological phenotypic changes in cellular organelles in Parkinson's disease patient human ONS derived C1200080013 cells assessed as perturbation of auto-phagosomal features by measuring depletion in LC3b staining intensity at 30 uM incubated for 24 hrs by anti-LC3b1/335/DAPI staining based fluorescence microscopic analysis; assay type: tissue-based; details: c1200080013, 24 h
# [5] = Cytotoxicity against Parkinson's disease patient human ONS derived C1200080013 cells assessed as cell death at 30 uM incubated for 24 hrs; assay type: cell-based; details: c1200080013, 24 h
# [6] = as §1, with “changes in” for “perturbation of”, “cytoplasm” for “cytoplasm by measuring log2ratio”, “20” for “30”; details: c1200080013, 24 h
# [7] = Induction of cytological phenotypic changes in cellular organelles in Parkinson's disease patient human ONS derived C1200080013 cells assessed as perturbation of early endosomal features by measuring reduction in EEA1 staining intensity at 30 uM incubated for 24 hrs by LysoTrackerRed DND-99/anti-EEA1 staining based fluorescence microscopic analysis; assay type: tissue-based; details: c1200080013, 24 h
# [8] = as §1, with “features” for “marker intensity in inner region of cytoplasm”, “reduction in MitoTracker staining intensity” for “log2ratio”; details: c1200080013, 24 h
# [9] = as §1, with “auto-phagosomal LC3b” for “mitochondria”, “anti-LC3b1/335/DAPI” for “MitoTrackerOrange CMTMRos/DAPI”; assay type: tissue-based; details: c1200080013, 24 h
smiles,measurement,setting,value
COc1ccc2c(c1OC)C(CO)N(C)c1c-2ccc2cc3c(cc12)OCO3 (configuration not stated),log(ratio),[1],-0.85
same,log(ratio),[2],-0.73
same,Activity,C1200080013,Active
CCN(CC)CCCC(C)Nc1ccnc2cc(Cl)ccc12 (configuration not stated) [CHLOROQUINE],Activity,[3],Toxic
same,Activity,[4],Non-Toxic
COc1ccc2c(c[n+](C)c3c4cc5c(cc4ccc23)OCO5)c1OC [CHELERYTHRINE],Activity,[5],Toxic
COc1cc(OC)c2c(c[n+](C)c3c4cc5c(cc4ccc23)OCO5)c1OC,Activity,[5],Toxic
COc1cc2c(c3c[n+](C)c4c5cc6c(cc5ccc4c13)OCO6)OCO2,Activity,[5],Toxic
C=C(C)[C@H]1Cc2c(ccc3c2O[C@@H]2COc4cc(OC)c(OC)cc4[C@@H]2C3=O)O1 [ROTENONE],Activity,[6],Toxic
COc1cc(/C=C/C(=O)O)ccc1O[C@@H]1O[C@H](CO)[C@@H](O)[C@H](O)[C@H]1O,Activity,[7],Non-Toxic
same,Activity,[8],Non-Toxic
same,Activity,[4],Non-Toxic
COc1ccc2c(c1OC)C(C(C)O)N(C)c1c-2ccc2cc3c(cc12)OCO3 (configuration not stated),log(ratio),[9],-0.99
C[n+]1cc2c3c(ccc2c2ccc4cc5c(cc4c21)OCO5)OCO3 [SANGUINARIUM],Activity,[5],Toxic
COc1cc(/C=C/C(=O)O[C@@H]2C[C@](O)(C(=O)O)C[C@@H](O)[C@H]2O)ccc1O,Activity,[7],Non-Toxic
same,Activity,[8],Non-Toxic
same,Activity,[4],Non-Toxic
